Results reported in patent publication US20230015949A1, “NEISSERIA TREATMENT USING CANNABINOIDS” (priority 2019, published 2023).
≈ marks a conversion by molar mass, not a printed value. Read-outs that look alike come from different tables or passages of the source.

Assays:
Neisseria gonorrhoeae [1] = conditions: N. gonorrhoeae ATCC 49226; in parentheses in broth microdilution columns; ranges are for agar dilution testing; cited from earlier work
[2] = test system: Staphylococcus aureus ATCC 29213; conditions: S. aureus ATCC 29213, CLSI QC ranges shown in parentheses, cited from earlier work
Neisseria gonorrhoeae [3] = assay: Agar dilution MIC assay, 25 isolates (Example 3); format: cell-based; conditions: for Number of isolates at MIC 0.015 μg mL^−1 / Number of isolates at MIC 0.03 μg mL^−1 / Number of isolates at MIC 0.06 μg mL^−1 / Number of isolates at MIC 0.08 μg mL^−1 / Number of isolates at MIC 0.12 μg mL^−1 / Number of isolates at MIC 0.25 μg mL^−1 / Number of isolates at MIC 0.5 μg mL^−1 / Number of isolates at MIC 1 μg mL^−1 / Number of isolates at MIC 2 μg mL^−1 / Number of isolates at MIC 4 μg mL^−1 / Number of isolates at MIC 8 μg mL^−1 / Number of isolates at MIC >8 μg mL^−1 / Number of isolates at MIC ≤0.004 μg mL^−1: 25 isolates, agar dilution assay, MIC distribution; for MIC / MIC50 / MIC90: Neisseria gonorrhoeae, agar dilution; for MIC50 / MIC90: 25 isolates of N. gonorrhoeae
Method: The MIC of Neisseria gonorrhoea was established using an agar dilution MIC assay.
Test drugs were provided by Micromyx. All stock solutions were allowed to stand for at least 1 hr prior to use to auto-sterilize. Leftover stock solutions of comparator drugs were aliquoted and stored at −80° C. Suppliers, catalog/lot numbers, solvents, stock concentrations and testing ranges were as follows.
Test organisms were reference strains from the American Type Culture Collection (ATCC; Manassas, Va.), isolates from WHO, isolates from the CDC antibiotic resistance bank, and clinical isolates from the Micromyx (MMX) repository. Upon receipt at Micromyx, the isolates were streaked under suitable conditions onto agar medium appropriate to each organism and were incubated for 24-48 hr at 35° C. Colonies harvested from these growth plates were resuspended in the appropriate medium containing a cryoprotectant. Aliquots of each suspension were then frozen at −80° C.
Prior to testing, the isolates were sub-cultured onto Chocolate agar (Becton Dickenson [BD]/BBL; Sparks, Md., Cat. No. 221267, Lot No. 9346275) and placed at 35° C. in a CO2 incubator for 24 hrs.
MIC values were determined using the agar dilution method (1, 2). All serial dilutions and liquid handling were performed by hand using sterile pipettes. […] Cannabidiol was prepared as a stock solution at 100× the final concentration in the appropriate solvent and diluted according to CLSI guidelines.
Each test agent was mixed with molten (50-55° C.) GC media agar supplemented with 1% IsoVitalex. […] All other test agents were added to the medium in a ratio of 0.2 mL 100× test agent to 19.8 mL agar. Once test agents were added to the agar in a sterile tube, they were mixed gently and then poured into a sterile 110×15 mm petri dish. Plates were allowed to solidify at room temperature and placed in a laminar air flow hood with the covers off to remove condensed moisture on the agar surface.
Next, each isolate was suspended to the equivalent of a 0.5 McFarland standard in saline using a Siemens Microscan turbidity meter and diluted 1:10. Each bacterial cell suspension was then transferred to wells in a stainless-steel replicator block. The prongs on the replicator deliver approximately 1-2 μl of inoculum to an agar surface. The resulting inoculum spots contained approximately 10^4 cells/spot.
Each agar plate containing either test compound or no drug (control) was stamped with the replicator. All plates were placed with the agar surface up to allow for the inoculum to soak into the agar. The plates were inverted and incubated at 35° C. for 24 hrs in a CO2 incubator and finally inspected for growth.

[4] = ATCC49226, N. gonorrhoeae ATCC 49226 (QC)
[5] = N. gonorrhoeae MMX 10409 (CIP-R)
[6] = NCTC13477, N. gonorrhoeae NCTC 13477 (WHO F)
[7] = NCTC13478, N. gonorrhoeae NCTC 13478 (WHO G)
[8] = NCTC13479, N. gonorrhoeae NCTC 13479 (WHO K)
[9] = NCTC13480, N. gonorrhoeae NCTC 13480 (WHO L)
[10] = NCTC13481, N. gonorrhoeae NCTC 13481 (WHO M)
[11] = NCTC13482, N. gonorrhoeae NCTC 13482 (WHO N)
[12] = NCTC13483, N. gonorrhoeae NCTC 13483 (WHO O)
[13] = NCTC13817, N. gonorrhoeae NCTC 13817 (WHO U)
[14] = NCTC13818, N. gonorrhoeae NCTC 13818 (WHO V)
[15] = NCTC13819, N. gonorrhoeae NCTC 13819 (WHO W)
[16] = NCTC13820, N. gonorrhoeae NCTC 13820 (WHO X)

CC[C@H]1OC(=O)[C@H](C)[C@@H](O[C@H]2C[C@@](C)(OC)[C@@H](O)[C@H](C)O2)[C@H](C)[C@@H](O[C@@H]2O[C@H](C)C[C@H](N(C)C)[C@H]2O)[C@](C)(O)C[C@@H](C)CN(C)[C@H](C)[C@@H](O)[C@]1(C)O [AZI, azithromycin]
CLSI QC range of MIC (Neisseria gonorrhoeae [1]): 0.25 to 1 mg/L
CLSI QC range of MIC [2]: 0.5 to 2 mg/L
CLSI QC range of MIC ([2]; listed as Azithromycin): (0.5-2)^1 μg/mL

CO/N=C(\C(=O)N[C@@H]1C(=O)N2C(C(=O)O)=C(CSc3nc(=O)c(=O)[nH]n3C)CS[C@H]12)c1csc(N)n1 [CRO, ceftriaxone]
Number of isolates at MIC 0.015 μg mL^−1 (Neisseria gonorrhoeae [3]): 6
Number of isolates at MIC 0.03 μg mL^−1 (Neisseria gonorrhoeae [3]): 1
Number of isolates at MIC 0.06 μg mL^−1 (Neisseria gonorrhoeae [3]): 6
Number of isolates at MIC 0.08 μg mL^−1 (Neisseria gonorrhoeae [3]): 5
Number of isolates at MIC 0.12 μg mL^−1 (Neisseria gonorrhoeae [3]): 1
Number of isolates at MIC 0.25 μg mL^−1 (Neisseria gonorrhoeae [3]): 2
Number of isolates at MIC 0.5 μg mL^−1 (Neisseria gonorrhoeae [3]): 0
Number of isolates at MIC 1 μg mL^−1 (Neisseria gonorrhoeae [3]): 0
Number of isolates at MIC 2 μg mL^−1 (Neisseria gonorrhoeae [3]): 1
Number of isolates at MIC 4 μg mL^−1 (Neisseria gonorrhoeae [3]): 0
Number of isolates at MIC 8 μg mL^−1 (Neisseria gonorrhoeae [3]): 0
Number of isolates at MIC >8 μg mL^−1 (Neisseria gonorrhoeae [3]): 0
Number of isolates at MIC ≤0.004 μg mL^−1 (Neisseria gonorrhoeae [3]): 3
MIC (Neisseria gonorrhoeae [3]; [4]): 0.015 mg/L (≈ 0.027 µM)
MIC (Neisseria gonorrhoeae [3]; N. gonorrhoeae CDC0165): 0.06 mg/L (≈ 0.108 µM)
MIC (Neisseria gonorrhoeae [3]; N. gonorrhoeae CDC0167): 0.004 mg/L (≈ 0.00721 µM)
MIC (Neisseria gonorrhoeae [3]; N. gonorrhoeae CDC 0175): 0.008 mg/L (≈ 0.0144 µM)
MIC (Neisseria gonorrhoeae [3]; N. gonorrhoeae CDC 0177): 0.015 mg/L (≈ 0.027 µM)
MIC (Neisseria gonorrhoeae [3]; N. gonorrhoeae CDC 0178): 0.06 mg/L (≈ 0.108 µM)
MIC (Neisseria gonorrhoeae [3]; N. gonorrhoeae CDC 0181): 0.008 mg/L (≈ 0.0144 µM)
MIC (Neisseria gonorrhoeae [3]; N. gonorrhoeae CDC 0194): 0.25 mg/L (≈ 0.451 µM)
MIC (Neisseria gonorrhoeae [3]; N. gonorrhoeae CDCO174): 0.06 mg/L (≈ 0.108 µM)
MIC (Neisseria gonorrhoeae [3]; [5]): 0.06 mg/L (≈ 0.108 µM)
MIC (Neisseria gonorrhoeae [3]; [6]): < 0.004 mg/L
MIC (Neisseria gonorrhoeae [3]; [7]): 0.015 mg/L (≈ 0.027 µM)
MIC (Neisseria gonorrhoeae [3]; [8]): 0.015 mg/L (≈ 0.027 µM)
MIC (Neisseria gonorrhoeae [3]; [9]): 0.25 mg/L (≈ 0.451 µM)
MIC (Neisseria gonorrhoeae [3]; [10]): 0.008 mg/L (≈ 0.0144 µM)
MIC (Neisseria gonorrhoeae [3]; [11]): 0.008 mg/L (≈ 0.0144 µM)
MIC (Neisseria gonorrhoeae [3]; [12]): 0.015 mg/L (≈ 0.027 µM)
MIC (Neisseria gonorrhoeae [3]; [13]): 0.002 mg/L (≈ 0.00361 µM)
MIC (Neisseria gonorrhoeae [3]; [14]): 0.015 mg/L (≈ 0.027 µM)
MIC (Neisseria gonorrhoeae [3]; [15]): 0.12 mg/L (≈ 0.216 µM)
MIC (Neisseria gonorrhoeae [3]; [16]): 2 mg/L (≈ 3.61 µM)
MIC50 (Neisseria gonorrhoeae [3]): 0.015 mg/L (≈ 0.027 µM)
MIC90 (Neisseria gonorrhoeae [3]): 0.25 mg/L (≈ 0.451 µM)
CLSI QC range of MIC [2]: 1 to 8 mg/L
CLSI QC range of MIC ([2]; listed as Ceftriaxone): (1-8)^1 μg/mL

C=C(C)C1CCC(C)=CC1c1c(O)cc(CCCCC)cc1O (stereo not drawn) [CBD, 2-[3-methyl-6-(1-methylethenyl)-2-cyclohexen-1-yl]-5-pentyl-1,3-benzenediol]
Number of isolates at MIC 0.015 μg mL^−1 (Neisseria gonorrhoeae [3]): 0
Number of isolates at MIC 0.03 μg mL^−1 (Neisseria gonorrhoeae [3]): 0
Number of isolates at MIC 0.06 μg mL^−1 (Neisseria gonorrhoeae [3]): 0
Number of isolates at MIC 0.08 μg mL^−1 (Neisseria gonorrhoeae [3]): 0
Number of isolates at MIC 0.12 μg mL^−1 (Neisseria gonorrhoeae [3]): 0
Number of isolates at MIC 0.25 μg mL^−1 (Neisseria gonorrhoeae [3]): 0
Number of isolates at MIC 0.5 μg mL^−1 (Neisseria gonorrhoeae [3]): 2
Number of isolates at MIC 1 μg mL^−1 (Neisseria gonorrhoeae [3]): 14
Number of isolates at MIC 2 μg mL^−1 (Neisseria gonorrhoeae [3]): 9
Number of isolates at MIC 4 μg mL^−1 (Neisseria gonorrhoeae [3]): 0
Number of isolates at MIC 8 μg mL^−1 (Neisseria gonorrhoeae [3]): 0
Number of isolates at MIC >8 μg mL^−1 (Neisseria gonorrhoeae [3]): 0
Number of isolates at MIC ≤0.004 μg mL^−1 (Neisseria gonorrhoeae [3]): 0
MIC (Neisseria gonorrhoeae [3]; [4]): 2 mg/L (≈ 6.36 µM)
MIC (Neisseria gonorrhoeae [3]; N. gonorrhoeae CDC0165): 2 mg/L (≈ 6.36 µM)
MIC (Neisseria gonorrhoeae [3]; N. gonorrhoeae CDC0166): 9 mg/L (≈ 28.6 µM)
MIC (Neisseria gonorrhoeae [3]; N. gonorrhoeae CDC0167): 1 mg/L (≈ 3.18 µM)
MIC (Neisseria gonorrhoeae [3]; N. gonorrhoeae CDC 0172): 7 mg/L (≈ 22.3 µM)
MIC (Neisseria gonorrhoeae [3]; N. gonorrhoeae CDC 0175): 1 mg/L (≈ 3.18 µM)
MIC (Neisseria gonorrhoeae [3]; N. gonorrhoeae CDC 0177): 1 mg/L (≈ 3.18 µM)
MIC (Neisseria gonorrhoeae [3]; N. gonorrhoeae CDC 0178): 2 mg/L (≈ 6.36 µM)
MIC (Neisseria gonorrhoeae [3]; N. gonorrhoeae CDC 0180): 7 mg/L (≈ 22.3 µM)
MIC (Neisseria gonorrhoeae [3]; N. gonorrhoeae CDC 0181): 0.5 mg/L (≈ 1.59 µM)
MIC (Neisseria gonorrhoeae [3]; N. gonorrhoeae CDC 0194): 1 mg/L (≈ 3.18 µM)
MIC (Neisseria gonorrhoeae [3]; N. gonorrhoeae CDCO174): 2 mg/L (≈ 6.36 µM)
MIC (Neisseria gonorrhoeae [3]; [5]): 1 mg/L (≈ 3.18 µM)
MIC (Neisseria gonorrhoeae [3]; [6]): 1 mg/L (≈ 3.18 µM)
MIC (Neisseria gonorrhoeae [3]; [7]): 1 mg/L (≈ 3.18 µM)
MIC (Neisseria gonorrhoeae [3]; [8]): 0.5 mg/L (≈ 1.59 µM)
MIC (Neisseria gonorrhoeae [3]; [9]): 2 mg/L (≈ 6.36 µM)
MIC (Neisseria gonorrhoeae [3]; [10]): 1 mg/L (≈ 3.18 µM)
MIC (Neisseria gonorrhoeae [3]; [11]): 1 mg/L (≈ 3.18 µM)
MIC (Neisseria gonorrhoeae [3]; [12]): 1 mg/L (≈ 3.18 µM)
MIC (Neisseria gonorrhoeae [3]; NCTC13484, N. gonorrhoeae NCTC 13484 (WHO P)): 7 mg/L (≈ 22.3 µM)
MIC (Neisseria gonorrhoeae [3]; [13]): 1 mg/L (≈ 3.18 µM)
MIC (Neisseria gonorrhoeae [3]; [14]): 1 mg/L (≈ 3.18 µM)
MIC (Neisseria gonorrhoeae [3]; [15]): 1 mg/L (≈ 3.18 µM)
MIC (Neisseria gonorrhoeae [3]; [16]): 1 mg/L (≈ 3.18 µM)
MIC50 (Neisseria gonorrhoeae [3]): 1 mg/L (≈ 3.18 µM)
MIC90 (Neisseria gonorrhoeae [3]): 2 mg/L (≈ 6.36 µM)
